The source of these data is patent US9758472B2, “Non-lactone carbocyclic and heterocyclic antagonists and agonists of bacterial quorum sensing” (WISCONSIN ALUMNI RESEARCH FOUNDATION, priority 2009, dated 2017).

SMILES strings stand for the structures. Where two headings read alike, the source gives them in different places.

For orientation: EC50 means the concentration that produces a half-maximal response. A word on the IC50: it is the concentration needed to halve the response being measured. One may read the half-life as the time needed for the level to fall by half in the phase considered.

Data set [1] has as its target T1, LasR (Pseudomonas aeruginosa, UniProt P25084).
T1 construct: expressed in transfected cells; host or cells: Escherichia coli DH5α (pJN105L+pSC11)
Nature of the data set: LasR agonism assay, P. aeruginosa PA01 MW1 (pUM15) YFP reporter strain. It counts as cell-based. The settings on record: for Act %: thiolactone libraries, P. aeruginosa, synthetic ligands tested at 10 μM. How it is done: (§1) The black bars are DH5α (pJN105L+pSC11) and the grey bars are PA01 MW1 (pUM15). Agonism positive control=activity of the reporter strain at full turn on for the strain. […] Negative control (Neg)=bacteria in the absence of natural and synthetic ligand. Error bars=standard deviation of the mean of triplicate samples.
(§2) The initial library was tested for LasR agonistic and antagonistic activity in two strains: Escherichia coli DH5α (pJN105L+pSC11) [Lee, J. H.; Lequette, Y.; Greenberg, E. P., Activity of purified QscR, a Pseudomonas aeruginosa orphan quorum-sensing transcription factor. Mol. Microbiol. 2006, 59 (2), 602-609] and P. aeruginosa PA01 MW1 (pUM15) [Muh, U.; Schuster, M.; Heim, R.; Singh, A.; Olson, E.; Greenberg, E. P., Novel Pseudomonas aeruginosa Quorum-Sensing Inhibitors Identified in an Ultra-High-Throughput Screen. Antimicrob. Agents Chemother. 2006, 50, 3674-3679] (FIGS. 5A and 5B). Both strains allow for synthetic autoinducer mimic evaluation and contain a reporter gene that allows for a quantitative readout of QS activity. DH5α (pJN105L+pSC11) is a heterologous β-galactosidase E. coli reporter strain containing a plasmid for the P. aeruginosa LasR gene. The PA01 MW1 (pUM15) strain uses the natural P. aeruginosa background containing a LasI deletion and the gene for yellow fluorescent protein (YFP) under the control of the LasI promoter to evaluate the LasI/R activity. Since the PA01 MW1 (pUM15) strain evaluates LasR in the natural P. aeruginosa background, in contrast to the heterologous E. coli strain, an improved idea of the interplay between the isolated LasI/R system and the combination of LasI/R with other QS subsystems such as QscR can be determined. Furthermore, additional nuances of the natural system such as compound permeability are incorporated in assays using the PA01 MW1 (pUM15) strain.

The target of data set [2] is T2, TraR (Agrobacterium tumefaciens, UniProt P33905). Nature of the data set: cell-based. It counts as cell-based. Also on record: and Agrobacterium tumefaciens WCF (pCF372); endogenous in cells; host or cells: Agrobacterium tumefaciens WCF (pCF372). The settings on record: for Inhib %: thiolactone libraries, A. tumefaciens, synthetic ligands tested at 10 μM. How it is done: (§3) The initial library was also tested in Vibrio fischeri ESI 114 (Δ-LuxI) [Lupp, C.; Urbanowski, M.; Greenberg, E. P.; Ruby, E. G., The Vibrio fischeri quorum-sensing systems ain and lux sequentially induce luminescence gene expression and are important for persistence in the squid host. Mol. Microbiol. 2003, 50 (1), 319-331] and Agrobacterium tumefaciens WCF (pCF372). […] J. Bacteriol. 1998, 180 (20), 5398-5405.] […] [Geske, G. D.; O'Neill, J. C.; Miller, D. M.; Mattmann, M. E.; Blackwell, H. E., Modulation of Bacterial Quorum Sensing: Systematic Evaluation of N-Acylated Homoserine Lactones in Multiple Species and New Insights into Their Mechanism of Action. J. Am. Chem. Soc. 2007, 129, 13613-13625.]
T2 sequence (P33905 whole entry): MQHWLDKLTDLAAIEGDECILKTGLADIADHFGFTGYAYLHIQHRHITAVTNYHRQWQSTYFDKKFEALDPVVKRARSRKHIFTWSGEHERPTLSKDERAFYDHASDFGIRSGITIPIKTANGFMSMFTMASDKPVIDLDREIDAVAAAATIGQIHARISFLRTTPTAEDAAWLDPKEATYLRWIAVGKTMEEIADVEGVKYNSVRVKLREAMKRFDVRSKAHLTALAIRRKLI

The nature of data set [3]: Functional half-life of autoinducers: ligand pre-incubated in media, then PA01 MW1 (pUM15) agonism readout. It counts as cell-based, P. aeruginosa. The settings on record: ligand incubated in media with antibiotics at 37° C.; pseudo first order, t1/2=ln(2)/slope. How it is done:
[Glansdorp, F. G.; Thomas, G. L.; Lee, J. K.; Dutton, J. M.; Salmond, G. P. C.; Welch, M.; Spring, D. R., Synthesis and stability of small molecule probes for Pseudomonas aeruginosa quorum sensing modulation. Org. Biomol. Chem. 2004, 2, 3329-3336.] […] In these cases the results were determined by NMR experiments conducted in deuterated buffers. […] Unfortunately, the use of high levels of DMSO reduces the biological relevance of the assay because large concentrations of DMSO cannot be tolerated by biological systems. Furthermore, the required concentrations of ligand are lower in a biologically based functional assay than in an NMR experiment because YFP production is much more sensitive than NMR, which requires relatively high concentrations.
In this assay, media, ligand, and antibiotics are prepared in Teflon-capped vials and allowed to incubate at 37° C. for predetermined times. P. aeruginosa cells from the strain PA01 MW1 (pUM15) were cultured overnight. These cells were then pelleted and washed with LB containing 50 mM MOPS. […] The 96 well plate was incubated for 8 hours and then analyzed for optical density and YFP fluorescence. […] Fluorescence was normalized to cell density and time points were analyzed as a percentage of the ability of the freshly prepared natural ligand to agonize the P. aeruginosa system. […]

For data set [4], the target named is T3, LuxR (Aliivibrio fischeri, UniProt P35327). Nature of the data set: cell-based. Also on record: The initial library was also tested in Vibrio fischeri ESI 114 (Δ-LuxI); endogenous in cells; host or cells: Vibrio fischeri ESI 114 (Δ-LuxI). It counts as cell-based, Vibrio fischeri. The settings on record: for IC50: dose response; for IC50 / Antagonist, percent inhibition compared to a positive control: V. fischeri ESI 114 (Δ-LuxI); for Antagonist, percent inhibition compared to a positive control: initial library (FIG. 4); for Inhib %: thiolactone libraries, V. fischeri, synthetic ligands tested at 10 μM. How it is done:
as §3

Data set [5] has as its target T1, LasR. In words: LasR antagonism assay, E. coli DH5α (pJN105L+pSC11) β-galactosidase reporter strain. It counts as cell-based, P. aeruginosa. The settings on record: for Antagonist, percent inhibition compared to a positive control: initial library (FIG. 4), negative values indicate agonist properties. The procedure:
(§4) FIG. 5B is a bar graph showing the results of […] assay for initial heterocyclic and carbocyclic library (Scheme 1) shown as a percent of the positive control. Antagonism positive control (Pos)=activity of the reporter strain in the absence of synthetic ligand at the EC50 value for the strain. […] Negative control (Neg)=bacteria in the absence of natural and synthetic ligand. Error bars=standard deviation of the mean of triplicate samples.
as §2

Data set [6] deals with T1, LasR. Nature of the data set: LasR agonism assay, E. coli DH5α (pJN105L+pSC11) β-galactosidase reporter strain. The settings on record: for EC50: dose response; for Act %: thiolactone libraries, E. coli, synthetic ligands tested at 10 μM. It counts as cell-based, P. aeruginosa. How it is done:
as §1, §2

Data set [7] concerns the target T1, LasR. Nature of the data set: LasR antagonism assay, P. aeruginosa PA01 MW1 (pUM15) YFP reporter strain. It counts as cell-based. The settings on record: for LasR antagonism, in words: P. aeruginosa PA01 MW1 (pUM15), natural background; for Antagonist, percent inhibition compared to a positive control: initial library (FIG. 4), P. aeruginosa PA01 MW1, negative values indicate agonist properties. The procedure: as §4, §2

Data set [8] deals with T3, LuxR. The settings on record: V. fischeri ESI 114 (Δ-LuxI); for Agonist, percent of activation compared to the positive control: initial library (FIG. 4). How it is done:
as §3

Data set [9] deals with T1, LasR. Nature of the data set: LasR antagonism assay, E. coli DH5α (pJN105L+pSC11) β-galactosidase reporter strain. It counts as cell-based, P. aeruginosa. The settings on record: thiolactone libraries, synthetic ligands tested at 10 μM.
For data set [10], the target named is T2, TraR. The settings on record: dose response; A. tumefaciens WCF (pCF372). The procedure: as §3
The conditions of data set [11]: cited from earlier work.

T3 sequence (P35327 whole entry): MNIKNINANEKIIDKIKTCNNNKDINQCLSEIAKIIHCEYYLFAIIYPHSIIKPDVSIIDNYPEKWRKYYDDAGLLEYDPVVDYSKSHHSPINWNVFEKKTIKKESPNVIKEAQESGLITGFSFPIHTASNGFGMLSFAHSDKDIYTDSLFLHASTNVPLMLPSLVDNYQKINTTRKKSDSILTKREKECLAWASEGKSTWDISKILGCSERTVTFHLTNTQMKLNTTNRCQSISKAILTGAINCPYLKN
T1 sequence (P25084 whole entry): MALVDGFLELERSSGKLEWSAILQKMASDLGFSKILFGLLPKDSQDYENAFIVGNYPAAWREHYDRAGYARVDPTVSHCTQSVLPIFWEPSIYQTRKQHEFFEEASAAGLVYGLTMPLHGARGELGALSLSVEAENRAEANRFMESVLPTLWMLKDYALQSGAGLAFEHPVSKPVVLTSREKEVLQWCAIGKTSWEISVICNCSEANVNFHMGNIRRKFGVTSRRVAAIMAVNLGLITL

With `CCCCCCCCCC(=O)CC(=O)N[C@H]1CCSC1=O` [Compound 1E], the EC50 stood at 3200 nM at LasR [1] (dose response, P. aeruginosa PA01 MW1 (pUM15)) and 92 nM on LasR [6] (E. coli DH5α (pJN105L+pSC11)). Also, the Act % on LasR [1] came to 127%; at LasR [6] it was 102%. In addition, the IC50 at TraR [2] (dose response, A. tumefaciens WCF (pCF372)) amounted to 1800 nM; on LuxR [4] it was 450 nM. Also, the values for the inhibition at 10 µM on TraR [2] (read-out: Inhib %), on LuxR [4] (read-out: Inhib %) and at LasR [5] (read-out: Inhib %) were 51%, 91% and -61%, respectively. In data set [3], the half-life was 82.3 h. In addition, the “LasR agonism, in words” value on LasR [6] (E. coli DH5α (pJN105L+pSC11)) is on record as “strong agonists”.

Turning to `CCCCCCCCCC(=O)CC(=O)Nc1ccccc1` [Compound 2], at LasR [7], the “LasR antagonism, in words” value is given as “antagonism capabilities” and the “Antagonist, percent inhibition compared to a positive control” value (“Antagonist, percent inhibition” for short) was 28.7%. Further, on LasR [5] (E. coli DH5α (pJN105L+pSC11)), the “LasR antagonism, in words” value is “antagonism capabilities” and the “Antagonist, percent inhibition” value stood at 53.7%.

As for `CCCCCCCCCC(=O)CC(=O)NCc1ccccc1F` [Compound 7], the “Antagonist, percent inhibition” value on LasR [5] (E. coli DH5α (pJN105L+pSC11)) is 38.8%. At LuxR [8], the “Agonist, percent of activation compared to the positive control” value (“Agonist, percent of activation” for short) was found to be 3.1%.

For the molecule `CCCCCCCCCC(=O)CC(=O)NCc1ccco1` [Compound 10], the “Antagonist, percent inhibition” value at LasR [7] was found to be 25.5%. The “Agonist, percent of activation” value on LuxR [8] came to 3.3%.

For `CCCCCCCCCC(=O)CC(=O)NCc1cccc([N+](=O)[O-])c1` [Compound 13], the “Antagonist, percent inhibition” value on LasR [7] came to 16.8%; on LuxR [4], 43.8%; on LasR [5] (E. coli DH5α (pJN105L+pSC11)) it was 41.0%. Further, the “Agonist, percent of activation” value at LuxR [8] was determined as 1.7%.

On to `CCCCCCCCCC(=O)CC(=O)NCc1ccc(OC)cc1` [Compound 14], for which the “LasR antagonism, in words” value on LasR [7] is “slight antagonism”. The “Antagonist, percent inhibition” value on LasR [7] is 37.8%; at LuxR [4] it was 14.6%; at LasR [5] (E. coli DH5α (pJN105L+pSC11)), −67.7%. Further, the “LasR agonism, in words” value on LasR [6] (E. coli DH5α (pJN105L+pSC11)) is on record as “strongly agonized”. In addition, the “Agonist, percent of activation” value on LasR [6] (initial library (FIG. 4), E. coli DH5α (pJN105L+pSC11)) came to 73.0%.

As for `O=C(Cc1cccc([N+](=O)[O-])c1)N[C@H]1CCSC1=O` [Compound 19E], the Act % on LasR [1] was found to be 3%; at LasR [6] it was 81%. Further, the Inhib % is listed as 30% at TraR [2], 30% at LuxR [4] and −3% at LasR [9]. The EC50 at LuxR [8] (dose response) amounted to 11000 nM; on LasR [6] (E. coli DH5α (pJN105L+pSC11)), 4100 nM.

In the case of `CCCCCC(=O)CC(=O)N[C@H]1CCSC1=O` [Compound 24E], the Act % was found to be 3% on LasR [1] and 0% on LasR [6]. In addition, the Inhib % on TraR [2] is listed as −89%; on LuxR [4], 99%; on LasR [9] it was −30%. Besides, the half-inhibitory concentration (IC50) at LuxR [4] came out at 350 nM. Moreover, the response at TraR [10] was half-maximal at 20000 nM (EC50).

Consider `CCCCCCCCCC(=O)CC(=O)N[C@H]1CCOC1=O` [OdDHL, 3-oxo-dodecanoyal homoserine lactone], for which the hydrolysis half-life entry in [11] (previous experiments, NMR in deuterated buffers, 50% solution of DMSO) was “approximately two”. In addition, the “racemization of the chiral center” value in [11] (previous experiments, over the course of a week) is given as “less than 5%”. Besides, the half-life entry in [11] (previous literature, growth media at 37° C.) was “approximately two”; in data set [3] it was 48.2 h.
